Here are results for 26 compounds from patent US10213427B2 (Incyte Corporation, priority 2010, dated 2019).

Where only a bound is given, the exact number is not on record here.

Sequence of FGFR3 enzyme (Millipore) (P22607 23-806): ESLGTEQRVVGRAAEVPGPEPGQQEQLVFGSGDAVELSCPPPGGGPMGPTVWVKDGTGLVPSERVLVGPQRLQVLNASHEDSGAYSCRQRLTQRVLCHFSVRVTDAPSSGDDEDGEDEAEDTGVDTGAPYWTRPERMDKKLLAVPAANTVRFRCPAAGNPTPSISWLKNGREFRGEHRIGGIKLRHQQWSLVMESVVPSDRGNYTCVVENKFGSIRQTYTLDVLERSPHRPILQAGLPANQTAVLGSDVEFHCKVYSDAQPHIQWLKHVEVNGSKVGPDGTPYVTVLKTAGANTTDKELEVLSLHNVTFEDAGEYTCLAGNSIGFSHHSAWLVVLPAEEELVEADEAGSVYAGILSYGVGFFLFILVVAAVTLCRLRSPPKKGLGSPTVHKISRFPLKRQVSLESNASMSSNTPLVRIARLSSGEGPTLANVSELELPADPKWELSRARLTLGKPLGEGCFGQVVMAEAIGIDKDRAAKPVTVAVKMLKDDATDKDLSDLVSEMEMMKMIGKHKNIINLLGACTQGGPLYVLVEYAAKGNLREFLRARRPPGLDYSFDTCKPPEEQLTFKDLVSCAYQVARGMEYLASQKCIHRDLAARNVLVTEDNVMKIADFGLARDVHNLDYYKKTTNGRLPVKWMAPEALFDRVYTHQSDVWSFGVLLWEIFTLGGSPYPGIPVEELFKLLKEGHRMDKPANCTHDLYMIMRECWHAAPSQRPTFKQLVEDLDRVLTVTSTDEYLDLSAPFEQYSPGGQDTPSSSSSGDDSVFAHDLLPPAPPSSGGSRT

The target of this test is FGFR3 enzyme (Millipore) (Homo sapiens (Human), UniProt P22607). Put plainly: FGFR3 Enzymatic Assay. It is filed as biochemical. The note with it: FRET peptide phosphorylation, 140 μM ATP. On the procedure:
The inhibitor potency of compounds of the invention was measured in an enzyme assay that measures peptide phosphorylation using FRET measurements to detect product formation. Inhibitors were serially diluted in DMSO and a volume of 0.5 μL was transferred to the wells of a 384-well plate. A 10 μL volume of FGFR3 enzyme (Millipore) diluted in assay buffer (50 mM HEPES, 10 mM MgCl2, 1 mM EGTA, 0.01% Tween-20, 5 mM DTT, pH 7.5) was added to the plate and pre-incubated for 5-10 minutes. Appropriate controls (enzyme blank and enzyme with no inhibitor) were included on the plate. […] The plate was incubated at 25° C. for 1 hr. […] The plate was allowed to equilibrate for ˜1 hr before scanning the wells on a PheraStar plate reader.
GraphPad prism3 was used to analyze the data. The IC50 values were derived by fitting the data to the equation for a sigmoidal dose-response with a variable slope. Y=Bottom+(Top−Bottom)/(1+10^((Log IC50−X)*HillSlope)) where X is the logarithm of concentration and Y is the response.
With `CC(C(=O)NCC1CC1)c1ccc(-c2ccc3c(c2)ncn3-c2cccc(NC(=O)NCC(F)(F)F)c2)cc1` (centres unmarked) [Example 16, N-(Cyclopropylmethyl)-2-(4-{{1-[3-(([(2,2,2-trifluoroethyl)amino]carbonyl)}amino)phenyl]-1H-benzimidazol-5-yl}phenyl)propanamide], the IC50 (in general, the concentration at which inhibition is half-maximal) was less than 0.01 µM.
The figure for `CC(C(=O)N1CCN(C)CC1)n1cc(-c2cnn3c(-c4cccc(NC(=O)NCC(F)(F)F)c4)cnc3c2)cn1` (centres unmarked) [Example 60, N-[3-(7-{1-[1-Methyl-2-(4-methylpiperazin-1-yl)-2-oxoethyl]-1H-pyrazol-4-yl}imidazo[1,2-b]pyridazin-3-yl)phenyl]-N′-(2,2,2-trifluoroethyl)urea] is less than 0.01 µM; for `O=C(NCC(F)(F)F)Nc1cccc(-n2cnc3cc(-c4cnn(C5CCN(C(=O)N6CCCC6)CC5)c4)ccc32)c1` [Example 26, N-[3-(5-{t-[1-(Pyrrolidin-1-ylcarbonyl)piperidin-4-yl]-1H-pyrazol-4-yl}-1H-benzimidazol-1-yl)phenyl]-N′-(2,2,2-trifluoroethyl)urea] it is less than 0.01 µM.
The figure for `Cn1ccnc1CNC(=O)c1ccc(-c2ccc3c(c2)ncn3-c2cccc(NC(=O)NCC(F)(F)F)c2)cc1` [Example 13, N-[(1-Methyl-1H-imidazol-2-yl)methyl]-4-{1-[3-({[(2,2,2-trifluoroethyl)amino]carbonyl}amino)phenyl]-1H-benzimidazol-5-yl}benzamide] is less than 0.01 µM; for `O=C(NCC(F)(F)F)Nc1cccc(-c2cnc3cc(-c4cnn(C5CCN(S(=O)(=O)Cc6ccccc6)CC5)c4)cnn23)c1` [Example 34, N-[3-(7-{1-[1-(Benzylsulfonyl)piperidin-4-yl]-1H-pyrazol-4-yl}imidazo[1,2-b]pyridazin-3-yl)phenyl]-N′-(2,2,2-trifluoroethyl)urea] it is less than 0.01 µM; for `CC(C(=O)NCC#N)n1cc(-c2cnn3c(-c4cccc(NC(=O)NCC(F)(F)F)c4)cnc3c2)cn1` (centres unmarked) [Example 66, N-(Cyanomethyl)-2-(4-{3-[3-({[(2,2,2-trifluoroethyl)amino]carbonyl}amino)phenyl]imidazo[1,2-b]pyridazin-7-yl}-1H-pyrazol-1-yl)propanamide] it is less than 0.01 µM.
The figure for `N#CCC1(n2cc(-c3cnn4c(-c5cccc(NC(=O)NCC(F)(F)F)c5)cnc4c3)cn2)CN(CC2CC2)C1` [Example 83, N-[3-(7-{1-[3-(Cyanomethyl)-1-(cyclopropylmethyl)azetidin-3-yl]-1H-pyrazol-4-yl}imidazo[1,2-b]pyridazin-3-yl)phenyl]-N′-(2,2,2-trifluoroethyl)urea] is 0.01 to 0.025 µM.
As for `CC(C(=O)N1CC(C#N)C1)n1cc(-c2cnn3c(-c4cccc(NC(=O)NCC(F)(F)F)c4)cnc3c2)cn1` (centres unmarked) [Example 72, N-[3-(7-{1-[2-(3-Cyanoazetidin-1-yl)-1-methyl-2-oxoethyl]-1H-pyrazol-4-yl}imidazo[1,2-b]pyridazin-3-yl)phenyl]-N′-(2,2,2-trifluoroethyl)urea], the IC50 was less than 0.01 µM.
Next, `N#CCC(n1cc(-c2cnn3c(-c4cccc(NC(=O)NCC(F)(F)F)c4)cnc3c2)cn1)C(F)(F)F` (centres unmarked) [Example 90, N-[3-(7-{1-[1-(Cyanomethyl)-2,2,2-trifluoroethyl]-1H-pyrazol-4-yl}imidazo[1,2-b]pyridazin-3-yl)phenyl]-N′-(2,2,2-trifluoroethyl)urea]: less than 0.01 µM; `CC(C(=O)NC1CC1)n1cc(-c2cnn3c(-c4cccc(NC(=O)NCC(F)(F)F)c4)cnc3c2)cn1` (centres unmarked) [Example 54, N-Cyclopropyl-2-(4-{3-[3-({[(2,2,2-trifluoroethyl)amino]carbonyl}amino)phenyl]imidazo[1,2-b]pyridazin-7-yl}-1H-pyrazol-1-yl)propanamide]: less than 0.01 µM.
In turn, `COCC(=O)N1CC(CC#N)(n2cc(-c3cnn4c(-c5cccc(NC(=O)NCC(F)(F)F)c5)cnc4c3)cn2)C1` [Example 75, N-[3-(7-{1-[3-(Cyanomethyl)-1-(methoxyacetyl)azetidin-3-yl]-1H-pyrazol-4-yl}imidazo[1,2-b]pyridazin-3-yl)phenyl]-N′-(2,2,2-trifluoroethyl)urea] displayed an IC50 of less than 0.01 µM.
Next, `N#CCC(c1ccco1)n1cc(-c2cnn3c(-c4cccc(NC(=O)NCC(F)(F)F)c4)cnc3c2)cn1` (centres unmarked) [Example 91, N-[3-(7-{1-[2-Cyano-1-(2-furyl)ethyl]-1H-pyrazol-4-yl}imidazo[1,2-b]pyridazin-3-yl)phenyl]-N′-(2,2,2-trifluoroethyl)urea]: less than 0.01 µM; `N#CCC(C1CC1)n1cc(-c2cnn3c(-c4cccc(NC(=O)NCC(F)(F)F)c4)cnc3c2)cn1` (centres unmarked) [Example 92, N-(3-{7-[1-(2-Cyano-1-cyclopropylethyl)-1H-pyrazol-4-yl]imidazo[1,2-b]pyridazin-3-yl}phenyl)-N′-(2,2,2-trifluoroethyl)urea]: less than 0.01 µM; `O=C(NCC(F)(F)F)Nc1cccc(-n2cnc3cc(-c4ccc(C(=O)NCCN5CCOCC5)cc4)ccc32)c1` [Example 11, N-(2-Morpholin-4-ylethyl)-4-{1-[3-({[(2,2,2-trifluoroethyl)amino]carbonyl}amino)phenyl]-1H-benzimidazol-5-yl}benzamide]: less than 0.01 µM.
Compound `COC1CCN(C(=O)C(C)n2cc(-c3cnn4c(-c5cccc(NC(=O)NCC(F)(F)F)c5)cnc4c3)cn2)CC1` (centres unmarked) [Example 69, N-[3-(7-{1-[2-(4-Methoxypiperidin-1-yl)-1-methyl-2-oxoethyl]-1H-pyrazol-4-yl}imidazo[1,2-b]pyridazin-3-yl)phenyl]-N′-(2,2,2-trifluoroethyl)urea] gave an IC50 of less than 0.01 µM.
Consider `CC(C(=O)N[C@@H]1CCOC1)c1ccc(-c2cnn3c(-c4cccc(NC(=O)NCC(F)(F)F)c4)cnc3c2)cc1` (stereo partly drawn) [Example 103, N-[(3R)-Tetrahydrofuran-3-yl]-2-(4-{3-[3-({[(2,2,2-trifluoroethyl)amino]carbonyl}amino)phenyl]imidazo[1,2-b]pyridazin-7-yl}phenyl)propanamide], for which the IC50 is less than 0.01 µM.
The figure for `CC(C(=O)NC1CCOCC1)n1cc(-c2cnn3c(-c4cccc(NC(=O)NCC(F)(F)F)c4)cnc3c2)cn1` (centres unmarked) [Example 57, N-(Tetrahydro-2H-pyran-4-yl)-2-(4-{3-[3-({[(2,2,2-trifluoroethyl)amino]carbonyl}amino)phenyl]imidazo[1,2-b]pyridazin-7-yl}-1H-pyrazol-1-yl)propanamide] is less than 0.01 µM; for `O=C(NCC(F)(F)F)Nc1cccc(-n2cnc3cc(-c4cnn(C5CCN(CC6CC6)CC5)c4)ccc32)c1` [Example 21, N-[3-(5-{1-[1-(Cyclopropylmethyl)piperidin-4-yl]-1H-pyrazol-4-yl}-1H-benzimidazol-1-yl)phenyl]-N′-(2,2,2-trifluoroethyl)urea] it is less than 0.01 µM.
Consider `CC(C(=O)NCc1ccccn1)n1cc(-c2cnn3c(-c4cccc(NC(=O)NCC(F)(F)F)c4)cnc3c2)cn1` (centres unmarked) [Example 61, N-(Pyridin-2-ylmethyl)-2-(4-{3-[3-({[(2,2,2-trifluoroethyl)amino]carbonyl}amino)phenyl]imidazo[1,2-b]pyridazin-7-yl}-1H-pyrazol-1-yl)propanamide], for which the IC50 is less than 0.01 µM.
The figure for `O=C(NCC(F)(F)F)Nc1cccc(-n2cnc3cc(-c4ccc(C(=O)NCC5CC5)cc4)ccc32)c1` [Example 7, N-(Cyclopropylmethyl)-4-{1-[3-({[(2,2,2-trifluoroethyl)amino]carbonyl}amino)phenyl]-1H-benzimidazol-5-yl}benzamide] is less than 0.01 µM; for `O=C(NCC(F)(F)F)Nc1cccc(-c2cnc3cc(-c4cnn(C5CCN(C(=O)N6CCOCC6)CC5)c4)cnn23)c1` [Example 37, N-[3-(7-{1-[1-(morpholin-4-ylcarbonyl)piperidin-4-yl]-1H-pyrazol-4-yl}imidazo[1,2-b]pyridazin-3-yl)phenyl]-N′-(2,2,2-trifluoroethyl)urea] it is less than 0.01 µM.
Next, `O=C(NCC(F)(F)F)Nc1cccc(-n2cnc3cc(-c4cnn(C5CCN(C(=O)C6CCCO6)CC5)c4)ccc32)c1` (centres unmarked) [Example 29, N-[3-(5-{1-[1-(Tetrahydrofuran-2-ylcarbonyl)piperidin-4-yl]-1H-pyrazol-4-yl}-1H-benzimidazol-1-yl)phenyl]-N′-(2,2,2-trifluoroethyl)urea]: less than 0.01 µM; `COC1CCN(C(=O)C(C)n2cc(-c3cnn4c(-c5cccc(NC(=O)NCC(F)(F)F)c5)cnc4c3)cn2)C1` (centres unmarked) [Example 68, N-[3-(7-{1-[2-(3-Methoxypyrrolidin-1-yl)-1-methyl-2-oxoethyl]-1H-pyrazol-4-yl}imidazo[1,2-b]pyridazin-3-yl)phenyl]-N′-(2,2,2-trifluoroethyl)urea]: less than 0.01 µM.
The compound `O=C(NCC(F)(F)F)Nc1cccc(-n2cnc3cc(-c4cnn(C5CCN(C(=O)Nc6cccnc6)CC5)c4)ccc32)c1` [Example 25] returned an IC50 of less than 0.01 µM.
In turn, `N#CC1(C(=O)N2CCC(n3cc(-c4cnn5c(-c6cccc(NC(=O)NCC(F)(F)F)c6)cnc5c4)cn3)CC2)CC1` [Example 45, N-{3-[7-(1-{1-[(1-Cyanocyclopropyl)carbonyl]piperidin-4-yl}-1H-pyrazol-4-yl)imidazo[1,2-b]pyridazin-3-yl]phenyl}-N′-(2,2,2-trifluoroethyl)urea] displayed an IC50 of less than 0.01 µM.
Next, `CC(C(=O)N(C)C)c1ccc(-c2cnn3c(-c4cccc(NC(=O)NCC(F)(F)F)c4)cnc3c2)cc1` (centres unmarked) [Example 99, N,N-Dimethyl-2-(4-{3-[3-({[(2,2,2-trifluoroethyl)amino]carbonyl}amino)phenyl]imidazo[1,2-b]pyridazin-7-yl}phenyl)propanamide]: less than 0.01 µM.
